Reference: ChEMBL document CHEMBL1201862, “PubChem BioAssay data set” (2004)
Calls of active or inactive are those of the source.

Tests used:
Cytochrome P450 3A4 = Cytochrome P450 3A4 (Homo sapiens, UniProt P08684); conditions: Potency;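 note: confirmatory qHTS run detecting inhibitors and substrates of CYP3A4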
Beta-galactosidase = Beta-galactosidase (Escherichia coli, UniProt Q8VNN2); test: PubChem AID 485352; format: functional
[1] = biological target: T1, Type-1 angiotensin II receptor (Homo sapiens, UniProt P30556); test: antagonism of angiotensin II type 1 receptor – cell-based, uHTS hits, selectivity assay for APJ receptor antagonist project, dose response (AID 463214); format: functional;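 note: antagonist potency against angiotensin II stimulated AT1 response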
T1 sequence (P30556 whole entry): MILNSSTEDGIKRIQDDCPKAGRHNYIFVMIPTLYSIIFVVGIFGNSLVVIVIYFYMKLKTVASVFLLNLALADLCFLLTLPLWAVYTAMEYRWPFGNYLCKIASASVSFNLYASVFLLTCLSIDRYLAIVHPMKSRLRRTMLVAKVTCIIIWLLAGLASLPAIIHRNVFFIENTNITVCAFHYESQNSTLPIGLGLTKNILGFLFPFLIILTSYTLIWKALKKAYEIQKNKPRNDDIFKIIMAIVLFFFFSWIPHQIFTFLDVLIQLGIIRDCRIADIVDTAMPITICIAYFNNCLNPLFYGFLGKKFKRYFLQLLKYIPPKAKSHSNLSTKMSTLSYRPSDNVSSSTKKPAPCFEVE

[2] = Dd2 malaria parasite growth inhibition potency – SYBR Green, dry powder samples, dose response (AID 1159566); format: functional, cell-based;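 note: potency for growth inhibition with lower SYBR green DNA signal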
[3] = P. falciparum Dd2 growth inhibitors, dose response, SYBR Green, cherry-picked samples (AID 1159567); format: functional, cell-based
[4] = toxicity to human HepG2 hepatoma cells – cell-based, plate reader, dry powder samples, cytotoxicity control, dose response (AID 1159569); format: functional;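 note: inhibitor potency with signal falling toward the positive control level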
[5] = growth inhibition of PfATP4-mutant resistant parasites – NITD609-resistant line, SYBR Green, dry powder, dose response (AID 1159571); format: functional, cell-based;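 note: parasites synchronized at ring stage by sorbitol before testing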
[6] = growth inhibition of yeast DHODH-expressing 3D7 parasites – SYBR Green, dry powder samples, dose response (AID 1159570); format: functional, cell-based;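 note: parasite growth measured after 72 hours of compound exposure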
[7] = HIV-1 AD8 envelope cell-cell fusion blockers – cherry-pick, dose response (AID 652062); format: functional, cell-based;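 note: luciferase signal from cell-cell fusion driven by HIV-1 clade B AD8 Env; potency is for inhibitors of fusion seen as a drop in luminescence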
[8] = blockers of HIV-1 ZM109 envelope-driven cell-cell fusion – HeLa effector, CEM target cells, luciferase, cherry-pick, dose response (AID 652058); format: functional, cell-based;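 note: luciferase signal from HIV-1 Env mediated cell-cell fusion of effector and target cells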
[9] = blockers of HIV-1 envelope-mediated cell-cell fusion – cherry-pick, dose response (AID 652057); format: functional, cell-based
[10] = viability of HCT116 lacking mutant beta-catenin – cell-based, human colon tumor, dose response (AID 1045); format: functional;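 note: HCT116 colon tumor cells with beta catenin knocked out; cells exposed to compound for 60 hours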
[11] = viability of PTEN-deleted HCT116 cells – cell-based, HCT116 PTEN knockout, dose response (AID 1047); format: functional;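 note: HCT116 colon tumor cells with PTEN knocked out; cells exposed to compound for 60 hours before readout; potency for loss of cell viability measured by luminescence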
[12] = Trypanosoma cruzi growth suppression in host cells – NIH3T3 host cells, beta-gal luminescence, confirmation (AID 2044); format: functional, cell-based;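 note: intracellular parasites grown in NIH/3T3 mouse fibroblasts as host cells; luminescent beta-galactosidase reporter signal from transgenic T. cruzi replicating inside host cells; inhibitors lower the luminescence signal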
[13] = NIH3T3 cell viability loss – ATP luminescence, mouse fibroblasts, counter-screen, dose response (AID 2010); format: functional, cell-based;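 note: cells exposed to compound for about 90 hours before reading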
[14] = off-target signal loss in HeLa-CEM21 co-culture – HeLa F-luc CTL cells, cherry-picked, counter-screen for HIV-1 Env fusion inhibitor project, dose response (AID 652040); format: functional, cell-based;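 note: potency for signal decrease marking cytotoxic or nonspecific inhibition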
[15] = biological target: T2, High affinity choline transporter 1 (Homo sapiens, UniProt Q9GZV3); test: human choline transporter blockers, potency – cell-based, 5-point CRC, membrane potential dye, dose response (AID 504840); format: functional
T2 sequence (Q9GZV3 whole entry): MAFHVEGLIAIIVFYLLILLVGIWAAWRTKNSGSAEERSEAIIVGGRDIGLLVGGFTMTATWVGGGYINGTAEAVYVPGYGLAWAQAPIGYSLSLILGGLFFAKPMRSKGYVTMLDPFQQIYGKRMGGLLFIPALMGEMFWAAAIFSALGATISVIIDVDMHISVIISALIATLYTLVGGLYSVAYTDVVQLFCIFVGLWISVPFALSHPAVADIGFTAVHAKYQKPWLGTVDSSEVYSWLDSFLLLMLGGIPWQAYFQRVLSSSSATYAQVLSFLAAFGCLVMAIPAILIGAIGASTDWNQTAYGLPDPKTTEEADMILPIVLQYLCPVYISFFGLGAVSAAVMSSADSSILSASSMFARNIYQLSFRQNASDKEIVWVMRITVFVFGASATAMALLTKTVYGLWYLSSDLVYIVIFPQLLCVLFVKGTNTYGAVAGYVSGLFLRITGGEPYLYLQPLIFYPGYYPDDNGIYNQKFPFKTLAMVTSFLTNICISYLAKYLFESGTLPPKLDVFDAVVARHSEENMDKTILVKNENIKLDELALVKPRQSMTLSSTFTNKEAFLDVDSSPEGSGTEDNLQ

[16] = biological target: T3, Ubiquitin-conjugating enzyme E2 N (Homo sapiens, UniProt P61088); format: functional;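 note: Dose-response confirmation in a TR-FRET assay detecting UBC13-driven polyubiquitin chain formation, inhibition measured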
T3 sequence (P61088 whole entry): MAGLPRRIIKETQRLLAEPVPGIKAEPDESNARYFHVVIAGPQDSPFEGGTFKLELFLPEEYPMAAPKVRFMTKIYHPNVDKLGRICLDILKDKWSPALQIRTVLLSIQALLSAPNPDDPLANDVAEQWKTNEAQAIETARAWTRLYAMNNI

Vero = test: cells; format: functional; conditions: Chlorocebus sabaeus
Major prion protein = Major prion protein (Homo sapiens, UniProt P04156); format: functional, cell-based
[17] = luciferase reporter signal suppression in cells – H4 neuroglioma cells, luminescence, dose response (AID 1990); format: functional, cell-based
[18] = alpha-synuclein stem-loop luciferase translation blockers – H4 neuroglioma cells, luminescence, confirmation (AID 1988); format: functional, cell-based

FC(F)(F)c1ccc(CN2C[C@@H]3C(c4ccccc4)C4(c5ccccc5)CC3(C4)[C@H]2c2ccccc2)cc1 (stereo partly specified)
AC50 (Cytochrome P450 3A4): 15.8 µM (inconclusive)

CC(=O)Nc1ccc(NC(=O)CCC(=O)OCC(=O)c2ccc(C)c([N+](=O)[O-])c2)cc1
EC50 (Beta-galactosidase): > 40 µM (inactive) | IC50 [1]: > 40 µM (not active)

CO[C@@H]1CN(C)C(=O)c2ccc(NC(=O)Nc3ccc(C(F)(F)F)cc3)cc2OC[C@H](C)NC[C@H]1C
AC50 [2]: 1.51 µM (active) | AC50 [3]: 2.13 µM (active) | AC50 [4]: 32.6 µM (active) | AC50 [5]: 2.88 µM (active) | AC50 [6]: 2.96 µM (active)

COc1ccc(NC(=O)Nc2ccc3c(c2)C(=O)N([C@H](C)CO)C[C@H](C)[C@H](CN(C)Cc2ccncc2)OCCCC[C@H](C)O3)cc1
AC50 [7]: 20.1 µM (active) | AC50 [8]: 8.87 µM (active) | AC50 [9]: 13 µM (active)

O=C(NC(N=C(S)Nc1c(Cl)cccc1Cl)C(Cl)(Cl)Cl)c1cccc([N+](=O)[O-])c1 (stereo unspecified)
EC50 [10]: 16.2 µM (active) | EC50 [11]: 12.4 µM (active) | EC50 [12]: 2.22 µM (active) | EC50 [13]: > 60 µM (not active)

COc1ccc([C@@H]2[C@@H]3C(=O)N(C(C)(C)C)C(=O)[C@@H]3[C@]3(CC(C)C)C(=O)N(c4ccc(C(F)(F)F)cc4)C(=O)N23)cc1
AC50 [14]: 3.8 µM (active) | AC50 [7]: 4.52 µM (active) | AC50 [8]: 2.51 µM (active) | AC50 [9]: 1.6 µM (active)

Fc1cc(F)c(F)c(SCCc2ccncc2)c1F
EC50 [10]: 30.7 µM (active) | EC50 [11]: 29.7 µM (active)

O=C1NC(c2ccccc2)=C(c2ccc3ccccc3n2)C(c2ccncc2)N1 (stereo unspecified)
IC50 [15]: 4.57 µM (active)

O=C(Cn1cc(C(=O)c2cccs2)c2ccccc21)NC1CCCCC1
IC50 [16]: > 20 µM (inactive)

Cc1ccnc(NS(=O)(=O)c2ccc(NC(=O)c3ccc(Cl)cc3[N+](=O)[O-])cc2)n1
IC50 [15]: 13.2 µM (active)

O=C1/C(=C/c2cccc(Cl)c2)SC(=S)N1CCC(=O)N1CCCCC1CCO (stereo unspecified)
CC50 (Vero): 19.9 µM (active)

CC(OC(=O)c1oc2ccccc2c1CSC1CCCCC1)C(=O)NC(N)=O (stereo unspecified)
EC50 [10]: 55.1 µM (active) | EC50 [11]: 24.9 µM (active)

CC(C)=CCCC1(C)C=Cc2c(O)c3c(c(CC=C(C)C)c2O1)OC12C(=CC4CC1C(C)(C)OC2(C/C=C(/C)C(=O)O)C4=O)C3=O (stereo unspecified)
AC50 (Cytochrome P450 3A4): 39.8 µM (inconclusive)

SC1=NCCc2ccccc2C1c1ccccc1Cl (stereo unspecified)
EC50 (Beta-galactosidase): > 40 µM (inactive) | IC50 [1]: 13.8 µM (active)

CN(C)CCCN(C(=O)C1=COCCO1)c1nc2ccc(Br)cc2s1
CC50 (Vero): > 25 µM (active)

CCC1(C)Cc2ccccc2-c2[nH]c(=S)[nH]c(=O)c21 (stereo unspecified)
IC50 (Major prion protein): 2.93 µM (active)

NC(=O)c1oc2ccccc2c1NC(=O)c1ccc([N+](=O)[O-])o1
EC50 [17]: 8.49 µM (active) | EC50 [18]: 4.08 µM (active) | CC50 (Vero): 5.74 µM (active)

CC(=O)OC1CCC2C3CCc4cc(O)ccc4C3CCC12C (stereo unspecified)
AC50 (Cytochrome P450 3A4): 39.8 µM (inconclusive)
